# Experiments:
# succinate dehydrogenase = molecular target: T1, succinate dehydrogenase (Botrytis cinerea, UniProt A0A384J5E4+A0A384J8V8+A0A384JHJ5); assay: Enzyme inhibition: succinate dehydrogenase activity in Botrytis cinerea mitochondria (DCPIP reduction); format: biochemical; details: concentration required to inhibit the rate of DCPIP reduction by 50%; Botrytis cinerea isolate Nick mitochondria; read-out: I50 (μM conc.)
# T1 construct: succinate-DCPIP reductase assay with KCN
# Experimental: Mitochondria were isolated by a method adapted from G.A. White [Biochem. Biophys. Res. Commun. 44: 1212, 1971]. Twenty to thirty grams of Botrytis cinerea isolate Nick were resuspended in 250 mL 0.25M sucrose, 5mM Na4 EDTA, pH 7.0 (+) 0.15% (w/v) bovine serum albumin (BSA) and placed in a Bead Beater chamber (Biospec Products, Bartlesville, Ok.). Zirconium oxide beads (0.5mm) were added to finish filling the chamber. Four 30 second beats separated by 2 minute temperature equilibration periods in the cold were used to break the mycelia. A crude mitochondrial preparation was harvested from the homogenate by differential centrifugation at 4° C. and resuspended in BSA-free sucrose/EDTA media and used for SDH assays.
# The succinate dehydrogenase activity was measured at 600 nm in 50 mM potassium phosphate, pH 7.2, 1 mM KCN, 45 μM 2,6-dichlorophenolindophenol (DCPIP) and 17 mM disodium succinate (final volume, 1 mL) with a Perkin-Elmer Lambda 7 ultraviolet-visible spectrophotometer. The test compounds were added as acetone solutions (final concentration of acetone, 1% (v/v)). The mitochondrial preparatons were used to initiate the reaction. All rates were corrected for endogenous activities minus succinate. Semilog plots of percentage inhibition versus test compound concentration were used to determine inhibition expressed as I50 (μM) which is the concentration required to inhibit the rate of DCPIP reduction by 50%. The commercial fungicide carboxin was used as standard throughout.
# Botrytis cinerea [1] = assay: Eggplant grey mold; format: in vivo; parameters: scale not given here; details: inoculated 24 h later, rated after 3-4 days; for Disease Control Rating at 20 ppm: eggplant sprayed with 20 ppm; for Disease Control Rating at 100 ppm: eggplant sprayed with 100 ppm; for Disease Control Rating at 500 ppm: eggplant sprayed with 500 ppm
# Experimental: Eggplant seed are planted in 2.25" square pots, six per pot, and maintained in growth chambers set at 23° C., 80% humidity, and 12 h photoperiod. When the plants are at the cotyledon stage (14-18 days afterplanting), the plants are sprayed with 1.5 mL/pot of 500, 100 or 20 ppm 2:3 acetone:water (with 0.5% Tween® 20) formulations of the test compounds.
# Twenty-four hours later the plants are inoculated with Botrytis cinerea, approximately 0.5 mL/pot of a 4×10^6 spore/mL suspension. The plantes are incubated at 23° C. and 100% humidity for 3-4 days, at which time disease control ratings are made based on presence and severity of Botrytis lesions.
# Botrytis cinerea [2] = assay: Vine grey mold (grape berries); format: in vivo; details: average of six berries, 7-10 days; for pest or weed control at 50 ppm: grape berries treated with 50 ppm, read-out: % DISEASE CONTROL 50 ppm; for pest or weed control at 200 ppm: grape berries treated with 200 ppm, read-out: % DISEASE CONTROL 200 ppm
# Experimental: Grape berries, which have been washed and surfaced sterilized in 70% ethanol for one minute, are, except for the negative controls, treated with 0.2 mL of a 2:3 acetone/water formulation (containing 0.05% Tween® 20) of 200 or 50 ppm of the test compounds and placed one per well in 12-well plates. Six berries per treatment level are used. Twenty-four hours later each berry is inoculated with Botrytis cinerea conidia, 0.2 mL of 10^6 spores/mL suspension. The plates are incubated at 20° C. with a 12 hours photoperiod for 7-10 days and the percent surface area infected with the disease is determined for each replicate using the values of 0, 1, 2, 5, 7, 10, 15, 20, 25, 30, 35, 40, 45, 50, 55, 60, 65, 70, 75, 80, 85, 90, 95, and 100%. Treatment means are calculated and percent disease control is determined by the formula [(control mean - treatment mean)/control means]×100.
# Some of the compounds have been tested more than once and the results shown are the average of the number of tests reported.
# Rhizoctonia solani = assay: Rice sheath blight; format: in vivo; parameters: scale not given here; details: inoculated two days later, rated after 7 days, average of five plants; for Disease Control Rating at 0.02 mg/mL: foliage and soil sprayed with 0.02 mg/mL; for Disease Control Rating at 0.1 mg/mL: foliage and soil sprayed with 0.1 mg/mL; for Disease Control Rating at 0.5 mg/mL: foliage and soil sprayed with 0.5 mg/mL
# Experimental: Rice plants, 11 to 15 days old, are grown in 7.65 cm^2 pots. Each plant in the treatment groups is treated by spraying both the foliage and the soil surface, each with 2 mL of a water/acetone/Tween®20 formulation containing 0.5, 0.1, or 0.02 mg/mL of Compound A. The pots are placed in flood trays which are filled with water to just below the soil line. Two days later, approximately two grams of Rhizoctonia solani inoculum, cultured on rice grain for four to eight weeks, is applied to the base of the rice plants in each pot. After 7 days in a 25° C. high humidity growth chamber, each plant is evaluated for the level of disease contro as compared to untreated controls by the following scale and the average of five plants per treatment level is calculated.
# T1 sequence (A0A384J5E4 1-300): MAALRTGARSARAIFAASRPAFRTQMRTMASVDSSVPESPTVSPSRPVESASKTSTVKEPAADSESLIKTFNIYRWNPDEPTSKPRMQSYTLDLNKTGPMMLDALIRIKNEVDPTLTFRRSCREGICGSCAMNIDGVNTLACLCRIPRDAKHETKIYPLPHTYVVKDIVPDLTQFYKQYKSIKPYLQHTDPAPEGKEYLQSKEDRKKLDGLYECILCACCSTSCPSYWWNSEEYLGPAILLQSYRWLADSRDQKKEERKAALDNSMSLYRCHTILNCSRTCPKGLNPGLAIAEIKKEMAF
# T1 sequence (A0A384J8V8 1-189): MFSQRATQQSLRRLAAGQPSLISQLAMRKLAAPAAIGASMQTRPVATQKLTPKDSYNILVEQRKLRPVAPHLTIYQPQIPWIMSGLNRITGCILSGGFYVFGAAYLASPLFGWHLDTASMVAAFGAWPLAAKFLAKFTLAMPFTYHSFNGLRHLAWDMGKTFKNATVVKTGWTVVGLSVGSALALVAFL
# T1 sequence (A0A384JHJ5 1-192): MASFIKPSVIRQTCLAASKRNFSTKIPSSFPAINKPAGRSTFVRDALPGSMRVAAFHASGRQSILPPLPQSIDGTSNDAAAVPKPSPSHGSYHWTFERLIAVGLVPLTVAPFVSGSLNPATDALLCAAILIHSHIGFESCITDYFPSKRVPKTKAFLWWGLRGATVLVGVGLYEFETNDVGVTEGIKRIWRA
# T1 sequence (A0A384K456 1-647 partner): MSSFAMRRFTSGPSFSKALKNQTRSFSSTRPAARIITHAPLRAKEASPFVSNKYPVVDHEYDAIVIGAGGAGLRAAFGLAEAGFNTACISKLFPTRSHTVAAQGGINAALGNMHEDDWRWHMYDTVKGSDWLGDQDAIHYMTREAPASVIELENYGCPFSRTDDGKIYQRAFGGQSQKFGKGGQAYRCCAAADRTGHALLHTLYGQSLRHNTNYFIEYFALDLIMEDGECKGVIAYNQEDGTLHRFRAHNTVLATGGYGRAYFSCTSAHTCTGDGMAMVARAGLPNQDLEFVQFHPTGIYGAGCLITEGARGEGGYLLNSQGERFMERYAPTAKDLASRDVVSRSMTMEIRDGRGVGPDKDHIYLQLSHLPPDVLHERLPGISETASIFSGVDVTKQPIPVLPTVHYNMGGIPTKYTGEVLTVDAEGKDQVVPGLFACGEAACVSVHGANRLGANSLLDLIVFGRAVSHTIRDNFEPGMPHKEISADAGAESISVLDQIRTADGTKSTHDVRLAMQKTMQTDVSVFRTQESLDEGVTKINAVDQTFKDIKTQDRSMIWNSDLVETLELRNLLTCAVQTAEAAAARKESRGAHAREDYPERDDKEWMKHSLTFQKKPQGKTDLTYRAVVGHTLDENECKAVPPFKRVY
SMILES,IC50 (succinate dehydrogenase) [µM],Disease Control Rating at 20 ppm (Botrytis cinerea [1]),Disease Control Rating at 100 ppm (Botrytis cinerea [1]),Disease Control Rating at 500 ppm (Botrytis cinerea [1]),pest or weed control at 50 ppm (Botrytis cinerea [2]) [%],pest or weed control at 200 ppm (Botrytis cinerea [2]) [%],Disease Control Rating at 0.02 mg/mL (Rhizoctonia solani),Disease Control Rating at 0.1 mg/mL (Rhizoctonia solani),Disease Control Rating at 0.5 mg/mL (Rhizoctonia solani)
"Cn1cc(C(=O)Nc2ccccc2C2=CCC(C(C)(C)C)CC2)c(C(F)(F)F)n1 (centres unmarked) [Example 133, 1H-pyrazole-4-carboxamide, N-[2-[4-(1, -dimethylethyl)-1-cyclohexen-1-yl]phenyl]-1-methyl-3-(trifluoromethyl)-]",0.0046,0,0,1,39,36,1,2,3
"Cn1cc(C(=O)Nc2cc(Cl)ccc2C2CCCCC2)c(C(F)(F)F)n1 [Example 94, 1H-pyrazole-4-carboxamide, N-(5-chloro-2-cyclohexylphenyl)-1-methyl-3-(trifluoromethyl)-]",0.074,,,0,0,0,,,0
"Cn1cc(C(=O)Nc2ccccc2C2(C)CCCC2)c(C(F)F)n1 [Example 83, 1H-pyrazole-4-carboxamide, 3-(difluoromethyl)-1-methyl-N-[2-(1-methylcyclopentyl)phenyl]-]",0.13,0,0,2,56,55,3,3,3
"COc1ccc(C2CCCCC2)c(NC(=O)c2cn(C)nc2C(F)(F)F)c1 [Example 32, 1H-pyrazole-4-carboxamide, N-(2-cyclohexyl-5-methoxyphenyl)-1-methyl-3-(trifluoromethyl)-]",0.11,0,1,2,6,5,,,0
"Cc1c(C(=O)Nc2ccccc2C2CCCCCC2)c(Cl)nn1C [Example 105, 1H-py-razole-4-carboxamide, 3-chloro-N-(2-cycloheptylphenyl)-1,5-dimethyl-]",0.26,0,0,1,6,0,,,0
"Cn1cc(C(=O)Nc2ccccc2CC2CCCC2)c(C(F)(F)F)n1 [Example 142, 1H-pyrazole-4-carboxamide, N-[2-(cyclopentylmethyl)phenyl]-1-methyl-3-(trifluoromethyl)-]",0.22,0,1,1,0,18,,,3
"Cc1ccc(OC2CCCCC2)c(NC(=O)c2cn(C)nc2C(F)F)c1 [Example 96, 1H-pyrazole-4-carboxamide, N-[2-(cyclohexyloxy)-5-methylphenyl]-3-(difluoromethyl)-1-methyl-]",0.43,,,0,0,0,,,0
"Cn1cc(C(=O)Nc2ccccc2C2CCCC2)c(C(F)F)n1 [Example 7, 1H-pyrazole-4-carboxamide, N-(2-cyclopentylphenyl)-3-(difluoromethyl)-1-methyl-]",0.0072,,,0,72,86,,,1
"Cn1cc(C(=S)Nc2ccccc2C2CCCCC2)c(C(F)F)n1 [Example 77, 1H-pyrazole-4-carbothioamide, N-(2-cyclohexylphenyl)-3-(difluoromethyl)-1-methyl]",22,0,1,2,85,82,,,0
"Cn1cc(C(=O)Nc2cc(F)ccc2C2CCCCC2)c(C(F)F)n1 [Example 16, 1H-pyrazole-4-carboxamide, N-(2-cyclohexyl-5-fluorophenyl)-3-(difluoromethyl)-1-methyl-]",0.024,,,1,15,57,,,1
"Cn1cc(C(=O)Nc2ccccc2O[C@H]2CC[C@H](C)CC2)c(C(F)(F)F)n1 [Example 73, 1H-pyrazole-4-carboxamide, 1-methyl-N-[2-[(4-methylcyclohexyl)oxy]phenyl]-3-(trifluoromethyl)-, trans-]",0.0076,,,0,8,0,,,2
"Cn1nc(C(F)F)c(C(=O)Nc2ccccc2C2CCCCCC2)c1F [Example 115, 1H-pyrazole-4-carboxamide, N-(2-cycloheptylphenyl)-3-(difluoromethyl)-5-fluoro-1-methyl-]",0.0065,1,2,3,42,95,3,3,3
"Cn1cc(C(=O)Nc2ccccc2C2CCCCC2)c(I)n1 [Example 56, 1H-pyrazole-4-carboxamide, N-[2-(cyclohexyl)phenyl]-3-iodo-1-methyl-]",0.013,,,0,46,70,,,0
"Cn1nc(C(F)(F)F)c(C(=O)Nc2ccccc2[C@@H]2C[C@H]3CC[C@@H]2C3)c1F (relative stereo) [Example 85, 1H-pyrazole-4-Carboxamide, N-(2-bicyclo[2.2.1]hept-2-ylphenyl)-5-fluoro-1-methyl-3-(trifluoromethyl)-, exo-]",0.01,0,1,2,28,99,1,3,3
"Cn1cc(C(=O)Nc2ccccc2C2CCCCC2)c(Br)n1 [Example 5, 1H-pyrazole-4-carboxamide, 3-bromo-N-(2-cyclohexylphenyl)-1-methyl-]",0.0066,1,3,3,50,40,,,0
